Values joined by “and” are separate entries in the source; they are usually repeats but may differ in a detail not shown here. Identical values can stand only once.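 Results reflect a 48-hour exposure of cells in 96-well plates to compound at five concentrations. GI50 marks 50% less growth. TGI marks complete inhibition of growth.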
Legend:
Assay in all cases: NCI tumour cell line growth inhibition, 48 h
SNB-19 CNS = tested on: SNB-19 CNS
786-0 renal = tested on: 786-0 renal
M14 melanoma = tested on: M14 melanoma
U251 CNS = tested on: U251 CNS
UACC-257 melanoma = tested on: UACC-257 melanoma
UO-31 renal = tested on: UO-31 renal
MCF7 breast = tested on: MCF7 breast
OVCAR-8 ovarian = tested on: OVCAR-8 ovarian
SF-539 CNS = tested on: SF-539 CNS
NCI-H226 lung = tested on: NCI-H226 lung

## COc1ccc2c3c1OC1C(=O)C=CC4(CC2)N(C)CCC314 (stereo unspecified)
SNB-19 CNS
  TGI: 76.9 µM
786-0 renal
  TGI: 63.7 µM
M14 melanoma
  TGI: 49.6 µM
U251 CNS
  TGI: 53 µM
UACC-257 melanoma
  TGI: > 100 µM
UO-31 renal
  TGI: 78.5 µM
MCF7 breast
  TGI: > 100 µM
OVCAR-8 ovarian
  TGI: > 100 µM

## C=C/C(C)=C\CC1[C@](C)(O)CC[C@H]2C(C)(C)C(=O)CC[C@]12C (stereo partly specified)
SNB-19 CNS
  TGI: > 100 µM
SF-539 CNS
  TGI: > 100 µM
NCI-H226 lung
  TGI: > 100 µM
786-0 renal
  TGI: > 100 µM
M14 melanoma
  TGI: > 100 µM
U251 CNS
  TGI: > 100 µM
UACC-257 melanoma
  TGI: > 100 µM
UO-31 renal
  TGI: 57 µM
MCF7 breast
  TGI: > 100 µM
OVCAR-8 ovarian
  TGI: > 100 µM

## CC1CCCC2(CC[N+](C)(CCC[N+](C)(C)C)CC2)C1 (stereo unspecified)
SNB-19 CNS
  TGI: > 100 µM
SF-539 CNS
  TGI: > 100 µM
NCI-H226 lung
  TGI: > 100 µM
786-0 renal
  TGI: > 100 µM
M14 melanoma
  TGI: > 100 µM
U251 CNS
  TGI: > 100 µM
UACC-257 melanoma
  TGI: > 100 µM
UO-31 renal
  TGI: > 100 µM
MCF7 breast
  TGI: > 100 µM
OVCAR-8 ovarian
  TGI: > 100 µM

## CCOP(=O)(/C=C\n1cc(C)c(=O)[nH]c1=O)OCC
SNB-19 CNS
  TGI: > 100 µM
SF-539 CNS
  TGI: > 100 µM
NCI-H226 lung
  TGI: > 100 µM
786-0 renal
  TGI: > 100 µM
M14 melanoma
  TGI: > 100 µM
U251 CNS
  TGI: > 100 µM
UACC-257 melanoma
  TGI: > 100 µM
MCF7 breast
  TGI: > 100 µM
OVCAR-8 ovarian
  TGI: > 100 µM

## CCNCCCn1c2c(c3ccc(Cl)cc3c1=O)C(=O)c1cc(OC)cnc1-2
SNB-19 CNS
  GI50: 0.585 µM
  TGI: 2.66 µM
SF-539 CNS
  GI50: 0.506 µM
  TGI: 1.71 µM
NCI-H226 lung
  GI50: 1.4 µM
  TGI: 5.04 µM
M14 melanoma
  GI50: 0.518 µM
  TGI: 2.06 µM
U251 CNS
  GI50: 0.219 µM
  TGI: 1.73 µM
UACC-257 melanoma
  GI50: 14.5 µM
  TGI: 32.9 µM
UO-31 renal
  GI50: 0.543 µM
  TGI: 2.37 µM
OVCAR-8 ovarian
  GI50: 0.694 µM
  TGI: 3.22 µM

## COC(=O)C1CCC(=S)N1C(=O)c1ccccc1 (stereo unspecified)
SNB-19 CNS
  TGI: > 100 µM
786-0 renal
  TGI: > 100 µM
M14 melanoma
  TGI: > 100 µM
U251 CNS
  TGI: > 100 µM
UACC-257 melanoma
  TGI: > 100 µM
UO-31 renal
  TGI: > 100 µM
MCF7 breast
  TGI: > 100 µM
OVCAR-8 ovarian
  TGI: > 100 µM

## O=C1NC(Nc2ccccc2)=NC(C(F)(F)F)(C(F)(F)F)N1
SF-539 CNS
  TGI: > 100 µM
NCI-H226 lung
  TGI: > 100 µM
786-0 renal
  TGI: > 100 µM
M14 melanoma
  TGI: 83.5 µM
U251 CNS
  TGI: 87.9 µM
UACC-257 melanoma
  TGI: > 100 µM
UO-31 renal
  TGI: > 100 µM
MCF7 breast
  TGI: > 100 µM
OVCAR-8 ovarian
  TGI: > 100 µM

## [Cl][Sn]([c]1ccccc1)([c]1ccccc1)[c]1ccccc1
SNB-19 CNS
  GI50: 0.314 µM and 0.113 µM and 0.0355 µM
  TGI: 1.07 µM and 0.24 µM and 0.129 µM
SF-539 CNS
  GI50: 0.25 µM and 0.109 µM and 0.0284 µM
  TGI: 0.642 µM and 0.244 µM and 0.0847 µM
NCI-H226 lung
  GI50: 0.194 µM and 0.271 µM and 0.278 µM
  TGI: 0.423 µM and 0.484 µM and 0.433 µM
UO-31 renal
  GI50: 0.183 µM and 0.0863 µM and 0.0343 µM
  TGI: 0.366 µM and 0.209 µM and 0.127 µM

## CCOC(=O)CCC(NC(=O)OCc1ccccc1)C(=O)NC(CCC(=O)OCC)C(=O)NC(CCC(=O)OCC)C(=O)NC(CCC(=O)OCC)C(=O)NC(CCC(=O)OCC)C(=O)NC(CCC(=O)OCC)C(=O)NC(CCC(=O)OCC)C(=O)OCC (stereo unspecified)
SNB-19 CNS
  TGI: > 100 µM
NCI-H226 lung
  TGI: > 100 µM
786-0 renal
  TGI: > 100 µM
M14 melanoma
  TGI: > 100 µM
U251 CNS
  TGI: > 100 µM
UACC-257 melanoma
  TGI: > 100 µM
UO-31 renal
  TGI: > 100 µM
MCF7 breast
  TGI: > 100 µM
OVCAR-8 ovarian
  TGI: > 100 µM

## CC1(C)N/C(=C\C=O)C(C)(C)N1O
SNB-19 CNS
  TGI: > 100 µM
SF-539 CNS
  TGI: > 100 µM
NCI-H226 lung
  TGI: > 100 µM
M14 melanoma
  TGI: > 100 µM
U251 CNS
  TGI: > 100 µM
UACC-257 melanoma
  TGI: > 100 µM
UO-31 renal
  TGI: > 100 µM
MCF7 breast
  TGI: > 100 µM
OVCAR-8 ovarian
  TGI: > 100 µM

## C=C(C(N)=O)c1ccc([N+](=O)[O-])o1
SNB-19 CNS
  TGI: > 100 µM
SF-539 CNS
  TGI: 27.2 µM
NCI-H226 lung
  TGI: 49.6 µM
786-0 renal
  TGI: 24.1 µM
M14 melanoma
  TGI: 8.65 µM
U251 CNS
  TGI: 34.6 µM
UACC-257 melanoma
  TGI: 21.7 µM
MCF7 breast
  TGI: 19.8 µM
OVCAR-8 ovarian
  TGI: 10.6 µM

## NC(=O)NNc1nc(-c2ccccc2)cs1
SNB-19 CNS
  TGI: > 100 µM
NCI-H226 lung
  TGI: > 100 µM
786-0 renal
  TGI: > 100 µM
M14 melanoma
  TGI: > 100 µM
U251 CNS
  TGI: > 100 µM
UACC-257 melanoma
  TGI: > 100 µM
UO-31 renal
  TGI: > 100 µM
MCF7 breast
  TGI: > 100 µM
OVCAR-8 ovarian
  TGI: > 100 µM

## CC(=O)OCC1OC(SC2=N/C(=C\c3ccc(Br)s3)C(=O)N2CN2CCOCC2)C(OC(C)=O)C(OC(C)=O)C1OC(C)=O (stereo unspecified)
SNB-19 CNS
  TGI: 46.7 µM
NCI-H226 lung
  TGI: 32.5 µM
786-0 renal
  TGI: 36.5 µM
U251 CNS
  TGI: 32.2 µM
UACC-257 melanoma
  TGI: 32.2 µM
UO-31 renal
  TGI: 29.4 µM
MCF7 breast
  TGI: 33.8 µM
OVCAR-8 ovarian
  TGI: 37 µM

## Nc1ccc(S(=O)(=O)c2ccc(NCN3C(=O)NC(=O)C(=O)C3=O)cc2)cc1
SNB-19 CNS
  TGI: > 100 µM
NCI-H226 lung
  TGI: > 100 µM
786-0 renal
  TGI: > 100 µM
M14 melanoma
  TGI: > 100 µM
U251 CNS
  TGI: > 100 µM
UACC-257 melanoma
  TGI: > 100 µM
UO-31 renal
  TGI: > 100 µM
OVCAR-8 ovarian
  TGI: > 100 µM

## CC(NC(=O)C(NC(=O)CNC(=O)OC(C)(C)C)C(C)C)C(=O)Oc1c(Cl)c(Cl)c(Cl)c(Cl)c1Cl (stereo unspecified)
SNB-19 CNS
  TGI: 96 µM
SF-539 CNS
  TGI: 33.4 µM
NCI-H226 lung
  TGI: 52.6 µM
M14 melanoma
  TGI: 39.5 µM
U251 CNS
  TGI: 48.3 µM
UACC-257 melanoma
  TGI: 44.7 µM
UO-31 renal
  TGI: 29.5 µM
MCF7 breast
  TGI: 74.1 µM
OVCAR-8 ovarian
  TGI: 40.8 µM

## CC(=O)Oc1cc2c(cc1OC(C)=O)OCC(c1ccc(C)cc1)C2 (stereo unspecified)
SNB-19 CNS
  TGI: 124 µM
SF-539 CNS
  TGI: 32 µM
NCI-H226 lung
  TGI: 62.2 µM
U251 CNS
  TGI: 38.8 µM
UACC-257 melanoma
  TGI: 40.3 µM
UO-31 renal
  TGI: 38.3 µM
MCF7 breast
  TGI: 50.4 µM
OVCAR-8 ovarian
  TGI: 68.6 µM

## Cc1cc(C)nc(SC2=C(Nc3ccc(C)c(Cl)c3)C(=O)N(Cc3ccccc3)C2=O)n1
SNB-19 CNS
  GI50: > 160 µM
  TGI: > 160 µM
SF-539 CNS
  GI50: > 160 µM
  TGI: > 160 µM
NCI-H226 lung
  GI50: > 160 µM
  TGI: > 160 µM
M14 melanoma
  GI50: > 160 µM
  TGI: > 160 µM
U251 CNS
  GI50: > 160 µM
  TGI: > 160 µM
UO-31 renal
  GI50: > 160 µM
  TGI: > 160 µM
OVCAR-8 ovarian
  GI50: > 160 µM
  TGI: > 160 µM

## Cc1ccc(S(=O)(=O)n2c3ccc(Br)cc3c3nc4ccccc4nc32)cc1
SNB-19 CNS
  TGI: > 100 µM
NCI-H226 lung
  TGI: 0.879 µM
786-0 renal
  TGI: > 100 µM
M14 melanoma
  TGI: > 100 µM
U251 CNS
  TGI: > 100 µM
UACC-257 melanoma
  TGI: > 100 µM
UO-31 renal
  TGI: > 100 µM
OVCAR-8 ovarian
  TGI: > 100 µM

## O=C(N/N=C/C=C/c1ccc([N+](=O)[O-])o1)c1cc2ccccc2cc1O
SNB-19 CNS
  GI50: 3.2 µM
  TGI: 24.4 µM
SF-539 CNS
  GI50: 2.44 µM
  TGI: 10.2 µM
NCI-H226 lung
  GI50: 1.64 µM
  TGI: 4.78 µM
M14 melanoma
  GI50: 0.758 µM
  TGI: 2.15 µM
U251 CNS
  GI50: 1.42 µM
  TGI: 4.16 µM
UACC-257 melanoma
  GI50: 1.38 µM
  TGI: 4.21 µM
UO-31 renal
  GI50: 1.05 µM
  TGI: 4.06 µM
MCF7 breast
  GI50: 0.711 µM
  TGI: 3.54 µM
OVCAR-8 ovarian
  GI50: 1.45 µM
  TGI: 21.7 µM

## CN(C)C(=O)OC1C(=O)N(C)c2ccc(Cl)cc2C2(c3ccccc3)N1C2(Cl)Cl (stereo unspecified)
NCI-H226 lung
  TGI: > 100 µM
M14 melanoma
  TGI: > 100 µM
U251 CNS
  TGI: > 100 µM
UACC-257 melanoma
  TGI: > 100 µM
UO-31 renal
  TGI: > 100 µM
OVCAR-8 ovarian
  TGI: > 100 µM

## CO/N=C1\CC(NC(=O)CNC(=O)OC(C)(C)C)c2ccsc21 (stereo unspecified)
SF-539 CNS
  TGI: > 100 µM
NCI-H226 lung
  TGI: > 100 µM
M14 melanoma
  TGI: > 100 µM
U251 CNS
  TGI: > 100 µM
UACC-257 melanoma
  TGI: > 100 µM
UO-31 renal
  TGI: > 100 µM
MCF7 breast
  TGI: > 100 µM
OVCAR-8 ovarian
  TGI: > 100 µM

Source: PubChem BioAssay (NCI)
